The experiment concerns mice of the NZO strain (genetically obese, hyperglycaemic and hyperinsulinaemic). Description: APP given intraperitoneally to NZO mice: blood glucose, serum insulin, weight, oral Glucose Tolerance Test. The experiment is classed as in vivo. As to conditions: mean of APP-treated group, 1 μg i.p. 3 times a day; for Serum Insulin: Beef equivalent. From the text:
It has now unexpectedly been found by the Applicants that these vertebrate pancreatic polypeptides (hereinafter collectively referred to as VPPs, which term should be understood to include such polypeptides of avian, amphibian, piscian, reptilian or mammalian origin) are as a class effective in lowering the concentration in the blood of both glucose and insulin when administered to a strain (NZO) of genetically obese, hyperglycaemic and hyperinsulinaemic mice. At the same time these treated mice lose weight as compared with untreated control animals and give normalized values in the oral Glucose Tolerance Test standard in the art.
APP (Endocrinology 83, 1323 (1968)) (1 μg) in water (0.1 ml) was administered by intraperitoneal injection 3 times a day for 25 days to each of 5 male mice (age 6 weeks, weight 23 g) of the NZO strain (genetically obese, hyperglycaemic and hyperinsulinaemic). 5 Matched control animals each received plain water (0.1 ml) by the same route and according to the same schedule. The blood glucose and serum insulin levels were measured at the start and during the course of the experiment and the mean results for the APP-treated group are shown in Table 1. No change in these levels from the values on day 0, which were the same as in the treated group, occurred in the control group over the course of the experiment.

Turning to avian pancreatic polypeptide [APP], the “Serum Insulin” value (Day 0 (start)) stood at 189 μU/ml, the “Serum Insulin” value (Day 10) is given as 99 μU/ml and the “Serum Insulin” value (Day 20) came to 47 μU/ml. Also, the Blood glucose amounted to 175 mg. % (Day 0 (start), 5 male NZO mice); 162 mg. % (Day 5); 154 mg. % (Day 15); 136 mg. % (Day 25).

The values above are taken from patent US4355025A, “Biologically active amides” (Burroughs Wellcome Co., priority 1975, dated 1982).
